Results published in patent publication US20130252832A1, “KRAS Variant and Tumor Biology” (Yale University, priority 2012, published 2013).

Tests used:
[1] = system: KRAS-variant 3′UTR reporter; experiment: Luciferase 3'UTR reporter expression following irinotecan exposure; format: cell-based
From the text: (§1) The disclosure provides a method of predicting the response of a cancer cell to the combination of a chemotherapy and monoclonal antibody therapy, including detecting a mutation in let-7 complementary site LCS6 of human KRAS in a patient sample, wherein the mutation is a SNP comprising a uracil (U) or thymine (T) to guanine (G) transition at position 4 of LCS6, and wherein the presence of the mutation indicates a resistance to the combination. In certain embodiments of this method, the cancer cell is a colorectal cancer (CRC) cell. The cancer cell may be evaluated in vitro or ex vivo. […] The chemotherapy may be a cytotoxic agent. A non-limiting example of the cytotoxic agent is irinotecan.
(§2) FIG. 24B is a graph depicting the fold repression (expressed as KRAS variant/KRAS wild type) as a function of irinotecan concentration, when cancer cells are treated with irinotecan.

wild-type 3′UTR reporter = experiment: as above; format: cell-based
From the text: as §1, §2

- Reporter expression following irinotecan exposure [1]: statistically-significant increase
- Reporter expression following irinotecan exposure (wild-type 3′UTR reporter): no change
Structure (SMILES): CCc1c2c(nc3ccc(OC(=O)N4CCC(N5CCCCC5)CC4)cc13)-c1cc3c(c(=O)n1C2)COC(=O)[C@]3(O)CC [irinotecan]
